What was measured:
[1] = molecular target: T1, S. aureus topoisomerase IV (Staphylococcus aureus, UniProt P0C1S7); assay: Topoisomerase IV inhibition assay (Inspiralis, streptavidin-coated plates); type: biochemical
T1 construct: purchased Inspiralis
Procedure: (§1) Inhibitory activities for compounds of the present invention were determined on E. coli and S. aureus DNA gyrase and topoisomerase IV in an assay from Inspiralis on streptavidin-coated 96-well microtiter plates from Thermo scientific Pierce. […] After washing off the unbound oligonucleotide, the enzyme test was performed. […] Reaction solutions were incubated at 37° C. for 30 min. After that, the TF buffer (50 mM NaOAc with pH 5.0, 50 mM NaCl and 50 mM MgCl2) was added to terminate the enzymatic reaction. After additional incubation for 30 min at rt, during which biotin-oligonucleotide-plasmid triplex was formed, the unbound plasmid was washed off using TF buffer and SybrGOLD in T10 buffer (10 mM Tris HCl with pH 8.0 and 1 mM EDTA) was added. […] Initial screening was done at 100 or 10 nM concentration of inhibitors against E. coli DNA gyrase or 1 μM or 100 nM concentration against S. aureus DNA gyrase and E. coli and S. aureus topo IV. […] GraphPad Prism 6.0 software was used to calculate the IC50 values. The result is given as the average value of three independent measurements. […] Chemoth.

E. coli topoisomerase IV = molecular target: T2, E. coli topoisomerase IV (Escherichia coli, UniProt P20083); assay: biochemical; details: E. coli topo IV; for remaining activity at 1 µM: 1 μM compound
T2 construct: purchased Inspiralis
Procedure: as §1

K. pneumoniae ATCC 10031 = assay: Microbroth dilution MIC (CLSI); type: cell-based; details: Klebsiella pneumoniae, ATCC10031; K. pneumoniae ATCC 10031; read-out: MIC
Procedure: (§2) The chemical entities described in the present invention were assessed for their antimicrobial activity using a microbroth dilution assay as recommended by the CLSI (Methods for Dilution Antimicrobial Susceptibility Tests for Bacteria That Grow Aerobically, and Methods for Antimicrobial Susceptibility Testing of Anaerobic Bacteria, Clinical and Laboratory Standards Institute, Document M07-A8, and M11-A8, Wayne, PA 19087, USA, 2012.). Compounds were dissolved by using 100% DMSO. Serial two-fold dilutions of each compound were made by using 100% DMSO as the diluent.
(§3) A library of Gram-negative and Gram-positive microbes and their drug- and multidrug-resistant variants were employed as test organisms. The MIC (minimum inhibitory concentration) was determined as the lowest concentration of an individual drug that lead to no visible growth.

[2] = tested on: S. aureus ATCC 43300 (MRSA); assay: Microbroth dilution MIC (CLSI); type: cell-based; details: Staphylococcus aureus; S. aureus ATCC 43300 (MRSA); read-out: MIC
Procedure: as §2, §3

E. faecalis ATCC 29212 = assay: Microbroth dilution MIC (CLSI); type: cell-based; details: Enterococcus faecalis, ATCC29212; E. faecalis ATCC 29212; read-out: MIC
Procedure: as §2, §3

S. aureus ATCC 29213 = assay: Microbroth dilution MIC (CLSI); type: cell-based; details: Staphylococcus aureus, ATCC29213; S. aureus ATCC 29213; read-out: MIC
Procedure: as §2, §3

A. baumannii ATCC 17978 = assay: Microbroth dilution MIC (CLSI); type: cell-based; details: Acinetobacter baumannii, ATCC17978; A. baumannii ATCC 17978; read-out: MIC
Procedure: as §2, §3

E. coli ATCC 25922 = assay: Microbroth dilution MIC (CLSI); type: cell-based; details: Escherichia coli, ATCC25922; E. coli ATCC 25922; read-out: MIC
Procedure: as §2, §3

P. aeruginosa ATCC 27853 = assay: Microbroth dilution MIC (CLSI); type: cell-based; details: Pseudomonas aeruginosa, ATCC27853; P. aeruginosa ATCC 27853; read-out: MIC
Procedure: as §2, §3

[3] = tested on: E. spp. cloacae ATCC 13047; assay: Microbroth dilution MIC (CLSI); type: cell-based; details: Enterobacter cloacae, ATCC13047; E. spp. cloacae ATCC 13047; read-out: MIC
Procedure: as §2, §3

E. coli DNA gyrase = molecular target: T3, E. coli DNA gyrase (Escherichia coli, UniProt P0AES6); assay: biochemical; details: E. coli DNA gyrase; for IC50: read-out: IC50
T3 construct: purchased Inspiralis
Procedure: (§4) Inhibitory activities for compounds of the present invention were determined on E. coli and S. aureus DNA gyrase and topoisomerase IV in an assay from Inspiralis on streptavidin-coated 96-well microtiter plates from Thermo scientific Pierce. […] After washing off the unbound oligonucleotide, the enzyme test was performed. […] Reaction solutions were incubated at 37° C. for 30 min. After that, the TF buffer (50 mM NaOAc with pH 5.0, 50 mM NaCl and 50 mM MgCl2) was added to terminate the enzymatic reaction. After additional incubation for 30 min at rt, during which biotin-oligonucleotide-plasmid triplex was formed, the unbound plasmid was washed off using TF buffer and SybrGOLD in T10 buffer (10 mM Tris HCl with pH 8.0 and 1 mM EDTA) was added. […] GraphPad Prism 6.0 software was used to calculate the IC50 values. The result is given as the average value of three independent measurements. […] Chemoth.

S. aureus DNA gyrase = molecular target: T4, S. aureus DNA gyrase (Staphylococcus aureus, UniProt P0A0K8); assay: biochemical; details: S. aureus DNA gyrase; for IC50: read-out: IC50
T4 construct: purchased Inspiralis
Procedure: as §4

[4] = tested on: E. aerogenes (ATCC 13408); assay: Microbroth dilution MIC (CLSI); type: cell-based, Enterobacter aerogenes; details: Klebsiella aerogenes, ATCC13408; E. aerogenes (ATCC 13408); read-out: MIC
Procedure: as §2, §3

E. faecium (ATCC 35667) = assay: Microbroth dilution MIC (CLSI); type: cell-based; details: Enterococcus faecium, ATCC35667; E. faecium (ATCC 35667); read-out: MIC
Procedure: as §2, §3

[5] = tested on: A. baumannii (ATCC 19606); assay: Microbroth dilution MIC (CLSI); type: cell-based; details: Acinetobacter baumannii, ATCC19606; A. baumannii (ATCC 19606); read-out: MIC
Procedure: as §2, §3

[6] = tested on: K. pneumoniae (ATCC 700603); assay: Microbroth dilution MIC (CLSI); type: cell-based; details: Klebsiella pneumoniae, ATCC700603; K. pneumoniae (ATCC 700603); read-out: MIC
Procedure: as §2, §3

E. faecium ATCC 700221 = assay: Microbroth dilution MIC (CLSI); type: cell-based; details: Enterococcus faecium, ATCC700221; E. faecium ATCC 700221; read-out: MIC
Procedure: as §2, §3

[7] = tested on: S. aureus ATCC 700699 (VISA); assay: Microbroth dilution MIC (CLSI); type: cell-based; details: Staphylococcus aureus; S. aureus ATCC 700699 (VISA); read-out: MIC
Procedure: as §2, §3

[8] = read-out: RA (residual activity of the enzyme)
[9] = 10 μM compound, read-out: RA (residual activity of the enzyme)

T2 sequence (P0AFI2 whole entry): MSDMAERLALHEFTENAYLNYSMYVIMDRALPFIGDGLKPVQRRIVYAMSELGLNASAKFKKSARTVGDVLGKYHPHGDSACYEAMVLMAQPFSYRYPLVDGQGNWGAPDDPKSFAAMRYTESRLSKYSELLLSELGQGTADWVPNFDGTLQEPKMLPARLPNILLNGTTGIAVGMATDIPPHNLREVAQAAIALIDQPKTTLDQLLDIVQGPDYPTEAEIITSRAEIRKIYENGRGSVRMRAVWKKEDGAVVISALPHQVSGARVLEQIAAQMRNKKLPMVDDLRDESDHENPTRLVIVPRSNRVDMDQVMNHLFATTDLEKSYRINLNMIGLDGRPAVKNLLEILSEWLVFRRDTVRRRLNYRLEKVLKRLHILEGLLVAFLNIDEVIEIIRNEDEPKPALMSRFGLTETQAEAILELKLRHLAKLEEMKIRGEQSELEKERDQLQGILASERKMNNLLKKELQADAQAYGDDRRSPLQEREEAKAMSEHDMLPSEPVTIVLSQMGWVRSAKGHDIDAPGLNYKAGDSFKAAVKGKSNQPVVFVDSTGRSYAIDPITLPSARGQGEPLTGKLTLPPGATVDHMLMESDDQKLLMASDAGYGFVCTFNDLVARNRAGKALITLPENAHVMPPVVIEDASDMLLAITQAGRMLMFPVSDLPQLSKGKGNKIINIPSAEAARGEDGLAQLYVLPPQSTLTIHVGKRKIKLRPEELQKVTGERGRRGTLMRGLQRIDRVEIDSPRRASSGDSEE
T2 sequence (P20083 whole entry): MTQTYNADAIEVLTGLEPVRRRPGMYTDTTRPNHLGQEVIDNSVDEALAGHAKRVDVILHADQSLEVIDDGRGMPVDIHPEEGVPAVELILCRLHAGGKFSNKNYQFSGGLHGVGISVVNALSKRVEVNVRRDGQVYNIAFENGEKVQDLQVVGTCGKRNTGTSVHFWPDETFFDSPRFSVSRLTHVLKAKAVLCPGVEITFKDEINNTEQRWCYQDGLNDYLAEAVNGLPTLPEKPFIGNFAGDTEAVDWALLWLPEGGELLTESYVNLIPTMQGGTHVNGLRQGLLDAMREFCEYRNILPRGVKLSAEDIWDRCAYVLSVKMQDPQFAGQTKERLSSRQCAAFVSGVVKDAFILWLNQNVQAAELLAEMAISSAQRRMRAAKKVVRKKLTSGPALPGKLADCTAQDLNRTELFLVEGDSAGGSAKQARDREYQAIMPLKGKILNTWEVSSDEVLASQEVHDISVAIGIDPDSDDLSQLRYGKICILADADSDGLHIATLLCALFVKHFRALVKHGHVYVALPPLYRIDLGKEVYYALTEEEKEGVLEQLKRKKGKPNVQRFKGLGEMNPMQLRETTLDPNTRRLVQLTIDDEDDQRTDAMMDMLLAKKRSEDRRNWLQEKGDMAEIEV
T4 sequence (P20831 whole entry): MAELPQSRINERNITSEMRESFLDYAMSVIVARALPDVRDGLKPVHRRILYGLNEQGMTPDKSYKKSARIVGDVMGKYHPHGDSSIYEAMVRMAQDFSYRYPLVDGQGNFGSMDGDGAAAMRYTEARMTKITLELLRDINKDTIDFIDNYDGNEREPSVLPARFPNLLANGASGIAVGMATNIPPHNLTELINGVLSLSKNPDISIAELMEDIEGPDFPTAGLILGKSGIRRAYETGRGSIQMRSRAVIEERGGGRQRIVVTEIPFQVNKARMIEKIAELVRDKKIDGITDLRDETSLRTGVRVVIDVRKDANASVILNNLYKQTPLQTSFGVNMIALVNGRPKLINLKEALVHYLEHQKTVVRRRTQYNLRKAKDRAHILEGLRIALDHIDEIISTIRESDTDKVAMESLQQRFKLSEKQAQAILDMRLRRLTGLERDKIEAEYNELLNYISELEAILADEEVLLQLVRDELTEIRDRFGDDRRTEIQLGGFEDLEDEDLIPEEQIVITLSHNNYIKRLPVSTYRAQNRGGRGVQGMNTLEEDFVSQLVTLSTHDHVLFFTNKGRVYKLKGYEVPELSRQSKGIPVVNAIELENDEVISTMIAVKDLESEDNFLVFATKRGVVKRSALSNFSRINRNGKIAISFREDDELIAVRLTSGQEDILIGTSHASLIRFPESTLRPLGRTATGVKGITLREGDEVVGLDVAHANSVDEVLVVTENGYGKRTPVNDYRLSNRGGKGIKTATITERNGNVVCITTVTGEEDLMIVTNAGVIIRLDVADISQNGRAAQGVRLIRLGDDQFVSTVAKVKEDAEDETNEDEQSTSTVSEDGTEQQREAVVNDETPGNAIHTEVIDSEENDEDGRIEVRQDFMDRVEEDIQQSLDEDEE
T4 sequence (P0A0K8 whole entry): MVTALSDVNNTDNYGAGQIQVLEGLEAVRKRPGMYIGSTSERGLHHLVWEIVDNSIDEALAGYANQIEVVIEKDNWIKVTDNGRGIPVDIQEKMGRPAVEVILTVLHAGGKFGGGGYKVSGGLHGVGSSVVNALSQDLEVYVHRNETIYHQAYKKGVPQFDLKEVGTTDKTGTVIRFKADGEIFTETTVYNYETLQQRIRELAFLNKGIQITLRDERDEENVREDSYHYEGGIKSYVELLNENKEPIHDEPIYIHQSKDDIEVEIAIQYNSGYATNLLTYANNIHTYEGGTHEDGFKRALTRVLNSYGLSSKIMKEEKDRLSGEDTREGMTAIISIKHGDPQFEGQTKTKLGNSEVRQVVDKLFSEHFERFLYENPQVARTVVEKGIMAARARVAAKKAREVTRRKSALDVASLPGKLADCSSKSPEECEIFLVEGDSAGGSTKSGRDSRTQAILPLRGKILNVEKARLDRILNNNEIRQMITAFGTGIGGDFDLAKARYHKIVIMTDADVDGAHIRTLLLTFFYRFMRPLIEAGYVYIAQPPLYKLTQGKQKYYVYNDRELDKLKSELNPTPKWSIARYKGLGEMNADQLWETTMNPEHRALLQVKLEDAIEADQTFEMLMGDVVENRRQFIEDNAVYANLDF
T1 sequence (P0C1U9 whole entry): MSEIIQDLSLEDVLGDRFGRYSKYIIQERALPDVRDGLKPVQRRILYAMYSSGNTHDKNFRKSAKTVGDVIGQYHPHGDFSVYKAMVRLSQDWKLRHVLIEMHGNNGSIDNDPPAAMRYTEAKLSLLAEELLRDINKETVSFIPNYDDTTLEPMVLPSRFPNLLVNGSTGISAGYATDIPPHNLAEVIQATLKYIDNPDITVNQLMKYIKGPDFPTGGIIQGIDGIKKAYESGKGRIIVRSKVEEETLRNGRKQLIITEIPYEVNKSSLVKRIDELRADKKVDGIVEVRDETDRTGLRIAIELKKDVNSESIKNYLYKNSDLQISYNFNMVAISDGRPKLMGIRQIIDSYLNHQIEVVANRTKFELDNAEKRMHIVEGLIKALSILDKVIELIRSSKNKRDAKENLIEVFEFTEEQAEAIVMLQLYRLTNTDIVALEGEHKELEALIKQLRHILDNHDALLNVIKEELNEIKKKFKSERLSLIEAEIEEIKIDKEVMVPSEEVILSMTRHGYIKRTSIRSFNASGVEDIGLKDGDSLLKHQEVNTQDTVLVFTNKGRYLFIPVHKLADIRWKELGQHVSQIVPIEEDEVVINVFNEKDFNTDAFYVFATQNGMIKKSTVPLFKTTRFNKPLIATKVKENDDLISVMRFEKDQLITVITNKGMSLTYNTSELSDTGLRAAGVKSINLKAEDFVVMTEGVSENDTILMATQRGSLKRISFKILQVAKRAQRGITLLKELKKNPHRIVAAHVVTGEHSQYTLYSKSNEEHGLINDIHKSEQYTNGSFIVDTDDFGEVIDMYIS
T1 sequence (P0C1S7 whole entry): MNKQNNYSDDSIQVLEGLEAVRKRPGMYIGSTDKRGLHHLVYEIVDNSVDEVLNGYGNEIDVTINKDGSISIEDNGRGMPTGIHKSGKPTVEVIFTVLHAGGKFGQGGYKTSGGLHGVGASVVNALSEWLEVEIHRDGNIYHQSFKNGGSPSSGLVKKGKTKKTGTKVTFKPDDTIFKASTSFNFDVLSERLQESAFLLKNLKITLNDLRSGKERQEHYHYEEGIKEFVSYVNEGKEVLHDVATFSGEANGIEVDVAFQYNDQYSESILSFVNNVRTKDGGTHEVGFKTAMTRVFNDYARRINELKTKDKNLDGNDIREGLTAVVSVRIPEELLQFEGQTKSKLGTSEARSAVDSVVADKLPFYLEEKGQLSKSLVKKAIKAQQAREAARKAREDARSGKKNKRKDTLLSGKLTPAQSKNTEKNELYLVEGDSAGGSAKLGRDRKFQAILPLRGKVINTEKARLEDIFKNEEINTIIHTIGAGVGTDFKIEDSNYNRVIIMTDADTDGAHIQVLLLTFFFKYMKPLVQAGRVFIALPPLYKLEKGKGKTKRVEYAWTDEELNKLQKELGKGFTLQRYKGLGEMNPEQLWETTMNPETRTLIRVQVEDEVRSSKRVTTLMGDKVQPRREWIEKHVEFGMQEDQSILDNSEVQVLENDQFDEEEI

Structure (SMILES) | remaining activity at 1 µM (E. coli topoisomerase IV; [8]) [%] | MIC (K. pneumoniae ATCC 10031) [µg/mL] | MIC [2] [µg/mL] | MIC (E. faecalis ATCC 29212) [µg/mL] | MIC (S. aureus ATCC 29213) [µg/mL] | MIC (A. baumannii ATCC 17978) [µg/mL] | MIC (E. coli ATCC 25922) [µg/mL] | MIC (P. aeruginosa ATCC 27853) [µg/mL] | MIC [3] [µg/mL] | IC50 (E. coli DNA gyrase) [nM] | MIC [4] [µg/mL] | MIC (E. faecium (ATCC 35667)) [µg/mL] | MIC [5] [µg/mL] | MIC [6] [µg/mL] | MIC (E. faecium ATCC 700221) [µg/mL] | MIC [7] [µg/mL] | IC50 (S. aureus DNA gyrase) [nM] | other results
Cc1[nH]c(C(=O)Nc2ccc(-c3n[nH]c(=O)o3)cc2N2CC[C@H](N)C2)c(Cl)c1Cl.Cl [Example 20, (S)-1-(2-(3,4-Dichloro-5-methyl-1H-pyrrole-2-carboxamido)-5-(5-oxo-4,5-dihydro-1,3,4-oxadiazol-2-yl)phenyl)pyrrolidin-3-aminium chloride] | 105 | 0.064 | 2 | 1 | 2 | 8 | 8 | 32 | 32 | 2.8 |  |  |  |  |  |  |  | remaining activity at 0.1 µM ([1]; S. aureus topo IV, 0.1 μM compound, read-out: RA (residual activity of the enzyme)): 99%; remaining activity at 0.01 µM (S. aureus DNA gyrase; 0.01 μM compound, read-out: RA (residual activity of the enzyme)): 90%; remaining activity at 0.1 µM (S. aureus DNA gyrase; 0.1 μM compound, read-out: RA (residual activity of the enzyme)): 39%
Cc1nnc(-c2ccc(NC(=O)c3[nH]c(C)c(Cl)c3Cl)c(OC(C)C)c2)o1 [Example 21, 3,4-Dichloro-N-(2-isopropoxy-4-(5-methyl-1,3,4-oxadiazol-2-yl)phenyl)-5-methyl-1H-pyrrole-2-carboxamide] |  |  |  |  | ≥ 64 |  | ≥ 64 | ≥ 64 |  |  | ≥ 64 | ≥ 64 | ≥ 64 | ≥ 64 |  |  |  | remaining activity at 1 µM (E. coli DNA gyrase; 1 μM compound, read-out: RA (residual activity of the enzyme)): 95%
Cc1[nH]c(C(=O)Nc2ccc(-n3nn[nH]c3=O)cc2N2CC[C@H](N)C2)c(Cl)c1Cl.Cl [Example 22, (S)-1-(2-(3,4-Dichloro-5-methyl-1H-pyrrole-2-carboxamido)-5-(5-oxo-4,5-dihydro-1H-tetrazol-1-yl)phenyl)pyrrolidin-3-aminium chloride] | 97 | ≥ 32 | ≥ 32 | > 64 | ≥ 32 | ≥ 32 | ≥ 32 | ≥ 32 | ≥ 32 | 4.9 |  |  |  |  | ≥ 32 | > 64 | 121 | remaining activity at 10 µM (E. coli topoisomerase IV; [9]): 26%
Cc1[nH]c(C(=O)Nc2ccc(-n3nn[nH]c3=O)cc2N2CCC(N)CC2)c(Cl)c1Cl.Cl [Example 23, 1-(2-(3,4-Dichloro-5-methyl-1H-pyrrole-2-carboxamido)-5-(5-oxo-4,5-dihydro-1H-tetrazol-1-yl)phenyl)piperidin-4-aminium chloride] |  | ≥ 32 | ≥ 32 | ≥ 32 | ≥ 32 | ≥ 32 | ≥ 32 | ≥ 32 | ≥ 32 | 3.96 |  |  |  |  | ≥ 32 | ≥ 32 | 216 | IC50 [1]: 6200 nM; IC50 (E. coli topoisomerase IV; read-out: IC50): 11500 nM
Cl.N[C@@H]1CCN(c2cc(C(=O)NCC(=O)O)ccc2NC(=O)c2cc(Br)c(Br)[nH]2)C1 [Example 37, (R)-1-(5-((Carboxymethyl)carbamoyl)-2-(4,5-dibromo-1H-pyrrole-2-carboxamido)phenyl)pyrrolidin-3-aminium chloride] |  |  |  |  | ≥ 64 |  | ≥ 64 | ≥ 64 |  | 2380 | ≥ 64 | ≥ 64 | ≥ 64 | ≥ 64 |  |  |  | remaining activity at 10 µM (S. aureus DNA gyrase; [9]): 78%
